Patent publication US10047051B2, “Substituted pyridines and method of use” (AbbVie S.á{acute over (.)}r.l., priority 2015, dated 2018)
pEC50: −log10 of the molar value.

Experiments:
Assay type in all cases: cell-based
CFTR ΔF508 mutant = target: T1, CFTR ΔF508 mutant (Homo sapiens, UniProt P13569, DEL508-508); experiment: YFP-halide influx assay for the CFTR-ΔF508 mutation (CFBE41o- cells); details: forskolin 10.67 μM; for pEC50: from (1−F/F0) vs concentration plot
T1 construct: expressed in transfected cells; host or cells: CFBE41o- cells, adenoviral transduction
T1 sequence (P13569 with tags, fused parts or gaps DEL508-508): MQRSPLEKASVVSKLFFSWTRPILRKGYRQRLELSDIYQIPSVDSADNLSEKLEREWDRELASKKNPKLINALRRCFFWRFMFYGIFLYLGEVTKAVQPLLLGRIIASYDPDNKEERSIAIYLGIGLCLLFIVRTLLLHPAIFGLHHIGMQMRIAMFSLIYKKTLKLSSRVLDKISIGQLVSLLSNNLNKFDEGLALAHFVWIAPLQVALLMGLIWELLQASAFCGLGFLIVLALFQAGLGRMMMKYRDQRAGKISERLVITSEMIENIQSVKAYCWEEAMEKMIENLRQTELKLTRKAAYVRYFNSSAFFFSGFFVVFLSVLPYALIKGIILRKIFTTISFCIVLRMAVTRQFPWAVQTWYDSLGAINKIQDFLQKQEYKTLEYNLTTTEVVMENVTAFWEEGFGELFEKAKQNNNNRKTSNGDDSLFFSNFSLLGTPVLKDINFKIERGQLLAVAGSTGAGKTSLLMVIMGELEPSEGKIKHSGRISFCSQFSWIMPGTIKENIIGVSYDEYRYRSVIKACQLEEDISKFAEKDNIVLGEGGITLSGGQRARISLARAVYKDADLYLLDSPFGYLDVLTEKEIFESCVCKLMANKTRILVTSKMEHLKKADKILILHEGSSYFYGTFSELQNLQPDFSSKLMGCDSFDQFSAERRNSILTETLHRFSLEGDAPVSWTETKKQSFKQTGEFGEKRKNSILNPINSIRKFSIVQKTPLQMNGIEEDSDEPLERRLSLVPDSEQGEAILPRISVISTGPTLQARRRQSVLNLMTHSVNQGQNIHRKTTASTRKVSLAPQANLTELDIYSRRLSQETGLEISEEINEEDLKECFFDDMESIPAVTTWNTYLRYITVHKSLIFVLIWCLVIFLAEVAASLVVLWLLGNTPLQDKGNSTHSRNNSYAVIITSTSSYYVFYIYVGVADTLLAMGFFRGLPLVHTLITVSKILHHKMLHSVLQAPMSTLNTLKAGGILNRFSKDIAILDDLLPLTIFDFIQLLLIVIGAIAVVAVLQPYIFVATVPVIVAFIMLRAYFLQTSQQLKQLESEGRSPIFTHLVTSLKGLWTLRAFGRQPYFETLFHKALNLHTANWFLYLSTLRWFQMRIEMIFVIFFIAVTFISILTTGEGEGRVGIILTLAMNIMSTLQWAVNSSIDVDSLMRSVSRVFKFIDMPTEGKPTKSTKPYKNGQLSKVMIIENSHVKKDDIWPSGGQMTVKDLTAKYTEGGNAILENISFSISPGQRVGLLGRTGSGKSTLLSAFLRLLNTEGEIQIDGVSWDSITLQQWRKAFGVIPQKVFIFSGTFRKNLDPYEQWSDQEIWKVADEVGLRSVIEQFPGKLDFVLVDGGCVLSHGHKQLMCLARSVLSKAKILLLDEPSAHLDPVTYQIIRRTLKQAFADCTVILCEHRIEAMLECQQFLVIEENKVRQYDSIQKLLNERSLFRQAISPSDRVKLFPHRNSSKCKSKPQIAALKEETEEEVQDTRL
In short: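 EC50 derived from plotting 1−F/F0 (fluorescence 36 s after iodide injection over pre-injection value) against compound concentration. Cells: CFBE41o- transduced with ΔF508-CFTR and YFP quench reporter, corrected 24 h at 27° C or by a CFTR modulator at 37° C.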

CFTR G551D mutant = target: T2, CFTR G551D mutant (Homo sapiens, UniProt P13569, G551D); experiment: YFP-halide influx assay for the CFTR-G551D mutation (HEK293 cells); details: forskolin 10.67 μM
T2 construct: expressed in transfected cells; host or cells: HEK293 cells, reverse transfection with plasmids
T2 sequence (P13569 whole entry G551D): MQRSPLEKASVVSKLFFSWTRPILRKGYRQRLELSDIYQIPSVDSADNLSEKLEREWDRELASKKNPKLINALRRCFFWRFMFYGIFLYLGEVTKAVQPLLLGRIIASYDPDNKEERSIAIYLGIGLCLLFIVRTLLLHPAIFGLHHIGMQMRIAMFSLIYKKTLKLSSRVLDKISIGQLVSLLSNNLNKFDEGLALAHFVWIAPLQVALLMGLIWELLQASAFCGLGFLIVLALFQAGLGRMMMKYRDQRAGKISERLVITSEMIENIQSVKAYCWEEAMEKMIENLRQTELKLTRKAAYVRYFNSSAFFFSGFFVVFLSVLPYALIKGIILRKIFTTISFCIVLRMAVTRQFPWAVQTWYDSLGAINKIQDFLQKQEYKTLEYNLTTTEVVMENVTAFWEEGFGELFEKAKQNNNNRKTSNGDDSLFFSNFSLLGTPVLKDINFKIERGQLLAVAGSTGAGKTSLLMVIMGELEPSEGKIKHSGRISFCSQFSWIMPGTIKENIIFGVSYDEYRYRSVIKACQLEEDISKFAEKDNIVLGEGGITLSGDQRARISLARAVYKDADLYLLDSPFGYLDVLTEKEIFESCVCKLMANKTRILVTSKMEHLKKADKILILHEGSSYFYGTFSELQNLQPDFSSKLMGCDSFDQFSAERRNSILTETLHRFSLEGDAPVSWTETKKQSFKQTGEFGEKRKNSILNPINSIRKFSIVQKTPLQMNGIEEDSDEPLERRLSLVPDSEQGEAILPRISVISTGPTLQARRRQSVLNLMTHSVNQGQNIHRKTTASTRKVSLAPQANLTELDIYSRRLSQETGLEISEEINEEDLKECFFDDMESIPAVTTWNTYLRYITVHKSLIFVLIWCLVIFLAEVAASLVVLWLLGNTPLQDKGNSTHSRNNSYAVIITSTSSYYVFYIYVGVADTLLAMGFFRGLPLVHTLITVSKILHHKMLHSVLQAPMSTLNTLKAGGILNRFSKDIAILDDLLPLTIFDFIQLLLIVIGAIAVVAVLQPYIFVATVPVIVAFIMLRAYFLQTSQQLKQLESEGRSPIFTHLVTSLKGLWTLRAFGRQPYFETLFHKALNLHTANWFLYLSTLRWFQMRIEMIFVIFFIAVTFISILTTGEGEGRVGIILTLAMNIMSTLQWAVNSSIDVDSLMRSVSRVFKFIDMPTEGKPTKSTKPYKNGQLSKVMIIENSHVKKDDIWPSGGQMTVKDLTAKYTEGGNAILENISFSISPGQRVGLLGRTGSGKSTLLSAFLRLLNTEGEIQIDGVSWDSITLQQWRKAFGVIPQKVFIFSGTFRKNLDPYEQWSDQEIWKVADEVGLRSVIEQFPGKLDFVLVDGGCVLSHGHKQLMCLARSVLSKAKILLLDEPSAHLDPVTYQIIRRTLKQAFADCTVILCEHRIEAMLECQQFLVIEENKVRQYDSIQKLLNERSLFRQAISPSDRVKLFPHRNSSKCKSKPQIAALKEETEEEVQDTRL
In short: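 Channel opening read as I⁻-driven quenching of a YFP H148Q/I152L/F47L reporter over 7 s post-injection, expressed as 1−F/F0 and fitted against concentration for EC50. Cells were HEK293 co-transfected at seeding with G551D CFTR plus reporter, then grown 24 h at 37 °C, 5% CO2.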

CFTR-G178R = target: T3, CFTR-G178R (Homo sapiens, UniProt P13569, G178R); experiment: YFP-halide influx assay for the CFTR-G178R
T3 construct: expressed in transfected cells
T3 sequence (P13569 whole entry G178R): as the sequence (P13569 whole entry G551D) above, with G178R, D551G counted along it
Text: (§1) The YFP halide influx assay measured the functionality of the cystic fibrosis Transmembrane Conductance regulator (CFTR) channels. The assay was used to evaluate the capacity of compounds to increase the channel opening of existing mutant CFTR channels in the membrane. It makes use of the observation that the yellow fluorescent protein (YFP) variant YFP H148Q, I152L, F47L has its fluorescence substantially quenched by halide ions like Cl^− and I^− (Galietta, L. J. V., Haggie, P. M., Verkman, A. S., 2001. Green fluorescent protein-based halide indicators with improved chloride and iodide affinities. FEBS Lett. 499, 220-224. doi:10.1016/S0014-5793(01)02561-3).
(§2) For this purpose, HEK293-cells were seeded in 96 well plates. During seeding, the cells were reverse-transfected with plasmid vectors that direct the expression of the CFTR G551D mutant and of the YFP reporter. Cells were incubated at 37° C., 5% CO2 for 24 hours so as to allow for sufficient expression of the CFTR protein.
(§3) The I^−-induced quenching of fluorescence was recorded immediately after injection of I^− for 7 seconds. The capacity of a compound to increase the channel opening was directly correlated with the decrease in fluorescence, and was expressed as (1−(fluorescence after 7 seconds (F)/fluorescence before injection (F0))) and an EC50 was derived from a (1−F/F0) vs compound concentration plot.
(§4) Similar YHA assays were developed for other channel gating defective or channel conductance defective CFTR mutants to determine effect of compound on channel activity. Examples of mutants are G178R, G1349D, S549N, R117H, R334W. This assay is also used for additional class I CFTR mutants, including G542X, W1282X; class II mutants including N1303K, and for class III mutants including S1251N; or wild-type CFTR.

G551D CFTR = G551D CFTR (Homo sapiens, UniProt P13569, G551D); experiment: TECC assay, FRT-CFTR G551D protocol; details: FRT cells stably transfected with G551D CFTR, high expression cells, increase in Isc after forskolin
G551D CFTR, sequence (P13569 whole entry G551D): as the sequence (P13569 whole entry G551D) above
Description: For G551D recordings, Fischer Rat Thyroid (FRT) cells stably transfected with G551D CFTR (a low CFTR-G551D expressing cell line and a high expressing CFTR-G551D cell line from Rosalind Franklin University of Medicine and Science, North Chicago, Ill.) are plated on Transwell® supports (Costar 6.5 mm diameter, 0.4 μm pore size). The cells are grown for 8-10 days under liquid-liquid interface conditions prior to electrophysiological readings. For electrophysiological recording, the FRT-G551D cells are mounted in the TECC heating plate for electrophysiological measurement and kept at 37° C. The epithelia are bathed in HEPES buffered culturing medium without FBS on both the basolateral and apical sides. Apical amiloride is used to inhibit the endogenous ENaC currents while forkolin is applied on both apical and basolateral side to stimulate CFTR. After forskolin triggering, compounds are added on both sides to test their potential for increasing CFTR gating. Measurements are done during a 10 minute timeframe with recordings every 2 minutes. The increase in Isc is used as a measure for the increased CFTR activity, EC50 values can be generated by measuring impact of different concentrations of compound on Isc on the cells, for this purpose each transwell is treated with a different compound concentration. Inh-172, an inhibitor specific for CFTR, is used to test the specificity of the tested compounds.

CFTR-R117H = target: T4, CFTR-R117H (Homo sapiens, UniProt P13569, R117H); experiment: YFP-halide influx assay for the CFTR-R117H
T4 construct: expressed in transfected cells
T4 sequence (P13569 whole entry R117H): as the sequence (P13569 whole entry G551D) above, with R117H, D551G counted along it
In short: (§5)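 HEK293 cells reverse-transfected with a CFTR mutant and YFP H148Q/I152L/F47L halide sensor, expressed 24 h at 37° C. Fluorescence quenching followed for 7 s after I⁻ injection; activity expressed as 1−F/F0, with EC50 fitted from 1−F/F0 versus compound concentration.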

CFTR-S549N = target: T5, CFTR-S549N (Homo sapiens, UniProt P13569, S549N); experiment: YFP-halide influx assay for the CFTR-S549N; parameters: % Activation: concentration or dose not given beside the values
T5 construct: expressed in transfected cells
T5 sequence (P13569 whole entry S549N): as the sequence (P13569 whole entry G551D) above, with S549N, D551G counted along it
Text: as §1, §2, §3, §4

CFTR-G1349D = target: T6, CFTR-G1349D (Homo sapiens, UniProt P13569, G1349D); experiment: YFP-halide influx assay for the CFTR-G1349D
T6 construct: expressed in transfected cells
T6 sequence (P13569 whole entry G1349D): as the sequence (P13569 whole entry G551D) above, with D551G, G1349D counted along it
In short: as §5

CFTR ΔF508 = target: T7, CFTR ΔF508 (Homo sapiens, UniProt P13569, DEL508-508); experiment: TECC assay, primary bronchial epithelial cells, CFTR ΔF508; details: primary bronchial epithelial cells of CF patients homozygous for CFTR ΔF508, treated with 3 μM VX809, increase in Isc after forskolin
T7 construct: host or cells: primary human bronchial epithelial cells from CF patients homozygous for ΔF508, pre-treated with VX809
T7 sequence (P13569 with tags, fused parts or gaps DEL508-508): as the sequence (P13569 with tags, fused parts or gaps DEL508-508) above
Description: (§6) The TECC (Tranepithelial Clamp Circuit, EP-design) assay measures the functionality of the cystic fibrosis Transmembrane Conductance regulator (CFTR) by measuring the short circuit current (Isc) generated over the basolateral and apical membrane of lung epithelial cells. In TECC the transepithelial potential PD and transepithelial resistance (Rt) are measured in an open circuit and transformed to Isc using Ohm's law. 24 Wells can be measured simultaneously allowing a higher throughput compared to Ussing chambers.
(§7) For this purpose, bronchial epithelial cells isolated from CF patients homozygous for the CFTR ΔF508 mutation (hAEC-CF, Epithelix) are plated on type IV collagen-coated Transwell® supports (Costar). Human airway epithelia are generated by provision of an air-liquid interface for 21 days to form well-differentiated polarized cultures that resemble in vivo pseudo-stratified ciliated epithelium (Fulcher, M. L., Gabriel, S., Burns, K. A., Yankaskas, J. R., Randell, S. H., 2005. Well-differentiated human airway epithelial cell cultures. Methods Mol. Med. 107, 183-206). In the case of the homozygous ΔF508 CFTR samples, the differentiated cells are treated with 3 μM VX809 (2626 South Loop West, Suite 225, Houston, Tex. 77054 USA, Cat n# S1565) to allow sufficient expression of properly folded CFTR protein on the membrane (48 hours basolateral treatment and 24 hours apical treatment), prior to electrophysiological recordings. For heterozygous G551D/ΔF508, differentiated cells are used as such for the recordings.
(§8) Information on the compounds can be retrieved on the homozygous ΔF508 CFTR samples looking at increased CFTR activity when compounds are added in an acute mode or in a chronic mode. On G551D/ΔF508 CFTR heterozygous samples compounds are added in an acute mode to the differentiated cells.
(§9) For the acute mode, for electrophysiological recording, the human airway epithelia are mounted in the TECC heating plate for electrophysiological measurement and kept at 37° C. The epithelia are bathed in a NaCl-Ringer solution (120 mM NaCl, 25 mM NaHCO3, 1.2 mM CaCl2, 1.2 mM MgCl2, 0.8 mM KH2PO4, 0.8 mM K2HPO4, pH 7.4, 5 mM glucose) on both the basolateral and apical sides. Apical amiloride is used to inhibit the endogenous ENaC currents while forkolin is applied on both apical and basolateral side to stimulate CFTR. After forskolin triggering, compounds are added on both sides to test their potential for increasing CFTR gating. Measurements are done during a 20 minute timeframe with recordings every 2 minutes. The increase in Isc is used as a measure for the increased CFTR activity, EC50 values can be generated by measuring impact of different concentrations of compound on Isc on primary cells, for this purpose each transwell is treated with a different compound concentration. Inh-172, an inhibitor specific for CFTR, is used to test the specificity of the tested compounds.
For the chronic mode, the differentiated cells are treated with 3 μM VX809 (2626 South Loop West, Suite 225, Houston, Tex. 77054 USA, Cat n# S1565) and potentiator compounds at different concentrations (48 hours basolateral treatment and 24 hours apical treatment), prior to electrophysiological recordings. For electrophysiological recording, the human airway epithelia are mounted in the TECC heating plate for electrophysiological measurement and kept at 37° C. The epithelia are bathed in a NaCl-Ringer solution (120 mM NaCl, 25 mM NaHCO3, 1.2 mM CaCl2, 1.2 mM MgCl2, 0.8 mM KH2PO4, 0.8 mM K2HPO4, pH 7.4, 5 mM glucose) on both the basolateral and apical sides. Apical amiloride is used to inhibit the endogenous ENaC currents while forkolin is applied on both apical and basolateral side to stimulate CFTR. Measurements are done during a 20 minute timeframe with recordings every 2 minutes. […]

CFTR G551D/ΔF508 = target: T8, CFTR G551D/ΔF508 (Homo sapiens, UniProt P13569, G551D); experiment: TECC assay, primary bronchial epithelial cells, CFTR G551D/ΔF508; details: primary bronchial epithelial cells heterozygous G551D/ΔF508, acute mode, increase in Isc after forskolin
T8 construct: host or cells: primary human bronchial epithelial cells from CF patients heterozygous G551D/ΔF508, no corrector pre-treatment
T8 sequence (P13569 whole entry F508del/G551D): as the sequence (P13569 with tags, fused parts or gaps DEL508-508) above, with G550D counted along it
Description: as §6, §7, §8, §9
When subjected to this protocol, the following values were obtained. The difference between ΔIsc measured as DMSO (baseline), and the ΔIsc measured with the compound tested.

Row | % Activation (CFTR ΔF508 mutant) | pEC50 (CFTR ΔF508 mutant) | % Activation (CFTR G551D mutant) | pEC50 (CFTR G551D mutant) | % Activation (CFTR-G178R) | pEC50 (CFTR-G178R) | pEC50 (G551D CFTR) | % Activation (CFTR-R117H) | pEC50 (CFTR-R117H) | % Activation (CFTR-S549N) | pEC50 (CFTR-S549N) | % Activation (CFTR-G1349D) | pEC50 (CFTR-G1349D) | pEC50 (CFTR ΔF508) | pEC50 (CFTR G551D/ΔF508) | Compound
1 | 108.0% | 7.72 | 70.2% | 5.90 |  |  |  |  |  |  |  |  |  | 6.95 |  | COCC(O)CNC(=O)c1ncc(S(=O)(=O)c2ccc(OC(F)(F)F)cc2F)cc1N (stereo not shown) [Compound 71, 3-amino-5-{[2-fluoro-4-(trifluoromethoxy)phenyl]sulfonyl}-N-(2-hydroxy-3-methoxypropyl)pyridine-2-carboxamide]
2 | 109.5% | 8.12 | 91.7% | 6.10 |  |  |  |  |  |  |  |  |  |  | 6.45 | COC[C@H](O)CNC(=O)c1ncc(S(=O)(=O)c2ccc(C(F)(F)F)cc2F)cc1N [Compound 99, 3-amino-5-{[2-fluoro-4-(trifluoromethyl)phenyl]sulfonyl}-N-[(2R)-2-hydroxy-3-methoxypropyl]pyridine-2-carboxamide]
3 | 102.0% | 8.60 | 99.7% | 6.67 |  |  |  |  |  |  |  |  |  |  | 7.21 | CC(C)OC[C@H](O)CNC(=O)c1ncc(S(=O)(=O)c2ccc(C(F)(F)F)cc2)cc1N [Compound 252, 3-amino-N-[(2R)-2-hydroxy-3-(propan-2-yloxy)propyl]-5-{[4-(trifluoromethyl)phenyl]sulfonyl}pyridine-2-carboxamide]
4 | 102.6% | 8.22 | 51.2% | 5.97 |  |  |  |  |  |  |  |  |  |  | 5.84 | Nc1cc(S(=O)(=O)c2ccccc2)cnc1C(=O)NC[C@@H](O)C(F)(F)F [Compound 253, 3-amino-5-(phenylsulfonyl)-N-[(2R)-3,3,3-trifluoro-2-hydroxypropyl]pyridine-2-carboxamide]

Further lines, the molecule ahead of its results:

Row | Compound | % Activation (CFTR ΔF508 mutant) | pEC50 (CFTR ΔF508 mutant) | % Activation (CFTR G551D mutant) | pEC50 (CFTR G551D mutant) | % Activation (CFTR-G178R) | pEC50 (CFTR-G178R) | pEC50 (G551D CFTR) | % Activation (CFTR-R117H) | pEC50 (CFTR-R117H) | % Activation (CFTR-S549N) | pEC50 (CFTR-S549N) | % Activation (CFTR-G1349D) | pEC50 (CFTR-G1349D) | pEC50 (CFTR ΔF508) | pEC50 (CFTR G551D/ΔF508)
5 | CC(O)(CNC(=O)c1ncc(S(=O)(=O)c2ccc(F)cc2)cc1N)C(F)(F)F (stereo not shown) [Compound 19, 3-amino-5-[(4-fluorophenyl)sulfonyl]-N-(3,3,3-trifluoro-2-hydroxy-2-methylpropyl)pyridine-2-carboxamide] | 113.3% | 7.79 | 63.2% | 5.97 | 89.9% | 6.25 | 5.26 | 90.8% | 6.73 | 79.6% | 5.79 | 84.3% | 6.18 |  | 
6 | CCOCCOCC(O)CNC(=O)c1ncc(S(=O)(=O)c2ccc(OC(F)(F)F)cc2)cc1N (stereo not shown) [Compound 38, 3-amino-N-[3-(2-ethoxyethoxy)-2-hydroxypropyl]-5-{[4-(trifluoromethoxy)phenyl]sulfonyl}pyridine-2-carboxamide] | 103.0% | 7.21 | 86.0% | 5.96 |  |  |  |  |  |  |  |  |  | 7.04 | 
7 | CC1(C)CN(C(=O)c2ncc(S(=O)(=O)c3ccc(OC(F)(F)F)cc3)cc2N)C1 [Compound 59, (3-amino-5-{[4-(trifluoromethoxy)phenyl]sulfonyl}pyridin-2-yl)(3,3-dimethylazetidin-1-yl)methanone] | 111.0% | 7.46 | 84.6% | 5.79 |  |  |  |  |  |  |  |  |  | 7.30 | 
